Reference: patent US9745305B2, “Modulators of methyl modifying enzymes, compositions and uses thereof” (Constellation Pharmaceuticals, Inc., priority 2013, dated 2017)

What was measured:
EZH2 = EZH2 (Homo sapiens, UniProt Q15910); test: EZH2 Assay (3H SAM methyl transfer, rPRC2, FlashPlate); type: biochemical; conditions: rPRC2, biotinylated oligonucleosomes, 0.2 μM 3H SAM, 2 nM EZH2
Outline: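 rPRC2 (2 nM EZH2) was preincubated 20 min with compound (80 to 0.16 μM, 10 points), then reacted 60 min with 0.2 μM ³H-SAM, 0.2 μM biotinylated oligonucleosomes and 3.6 μM H3K27me3 peptide at pH 8.5. Methylated product was captured on SAV FlashPlates and counted, and IC50 came from a 4-parameter fit.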

Y641N EZH2 = Y641N EZH2 (Homo sapiens, UniProt Q15910, Y641N); test: Assay for Y641N EZH2 (as the EZH2 assay, H3K27Me2 oligonucleosomes as substrate); type: biochemical; conditions: Y641N EZH2 mutant, reconstituted H3K27Me2 oligonucleosomes as substrate
Outline: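 rPRC2 (2 nM EZH2) with 0.2 μM reconstituted H3K27Me2 biotinylated oligonucleosomes, 3.6 μM H3K27me3 peptide, 0.2 μM ^3H SAM in Tris pH 8.5; compounds (80 to 0.16 μM, 2-fold) pre-incubated 20 min, reaction 60 min, SAH/EDTA quench. Tritiated product captured on streptavidin plates, scintillation counted; IC50 from 4-parameter fit.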

[1] = test system: H3K27me3 mark in Hela cells expressing wild type EZH2; test: H3K27me3 MSD Hela Assay; type: cell-based; conditions: Homo sapiens, HeLa, 96 h, read-out: H3K27me3_MSD_HeLa (EC50)
Method: H3K27me3 MSD Hela Assay. Trypsinized HeLa cells were counted and diluted in 10% DMEM (Life Technologies, Cat. #10569) to 5000 cells/75 μL. Seventy-five μL of cells were place in each well of a 96-well flat-bottomed plate and incubated at 37° C. for 4 hours. Twenty-five μL of test compound (at various concentrations) was added to the cells and incubation continued at 37° C. for 96 hours. Media was then removed and the cells rinsed once with ice cold PBS. Forty μL of ice-cold MSD Buffer AT (10 mM HEPES, pH 7.9, 5 mM MgCl2, 0.25M sucrose, Benzonase (1:10000), 1% Triton X-100 supplemented with fresh 1× Protease Inhibitor cocktail and 1 mM 4-(2-Aminoethyl)benzenesulfonyl fluoride hydrochloride (AEBSF)) was added to each well and the plates placed on ice for 30 minutes. Ten μL of 5M NaCl was then added to each well and incubation on ice continued for another 15 minutes. The material in each well was suspended pipetting up and down and then transferred to a new 96 well plate. The emptied wells were rinsed with 150 uL ice-cold 20 mM Tris pH 7.5, 1 mM EDTA, 1 mM EGTA, supplemented with fresh 1× Protease Inhibitor cocktail and 1 mM AEBSF (“NO salt NO detergent buffer) and transferred to the respective wells in the new plate. Three hundred μL of NO Salt NO detergent buffer was then added to each well of lysates and the plates frozen at −80° C.
On the same day, an appropriate number of MSD standard bind 96-well plates were coated with 30 μL/well of total H3 capture antibody (Millipore, Cat # MAB3422) at 1 μg/mL concentration in PBS. The antibody solution was evenly distributed first by tapping gently on the sides of the plates and then by shaking the plates for a few minutes at 1000 rpm. Antibody coated plates were stored at 4° C. overnight.
The next day the lysates are thawed to RT. The antibody coated MSD plates are washed 3× with TBS-T (Tris-buffered saline (Fisher Scientific, Cat #BP2471-1)+0.2% Tween-20). One-hundred fifty μL of 5% Blocker A in TBS-T is added to each well. The wells are covered and shaken on a shaker at RT for one hour. The Blocker A step is repeated a second time. After removing the blocker, 25 μL of cell lysate is transferred into each antibody coated well. The plates are shaken for 2 hours at RT, the lysate removed and the plates again washed with Blocker A in TBS-T. Twenty-five μL of appropriate freshly prepared antibody mix (including both primary and secondary antibodies) is added to each well and the plates shaken for 1 hour at RT.
Both H3 antibodies were obtained from Cell Signalling (Cat #s 4499 and 9733). The goat anti-rabbit antibody was obtained from Meso-Scale Discovery (Cat #R32AB-1).
The antibody mix was then removed and the wells washed with Blocker A. One hundred-fifty μL of freshly prepared 1×MSD Read Buffer (Meso-Scale Discovery; Cat #R927C-2) was then added to each well and the plates read on a MSD Sector 2400 Plate Reader.
Data was analyzed using Assay Assistant (Constellation Pharmaceuticals In-house product) and Activity Base (IDBS Ltd, Surrey, UK) template. Data files were imported to Assay Assistant and assay conditions were specified. A unique Analysis ID was created and the data files exported to Activity Base. An analysis template was created on Activity Base to measure dose-dependent inhibition of H3K27me3 mark and cell viability respectively. Readout of DMSO wells were used to normalize the data. Resulting curves were fitted using Activity base software Model 205 (IDBS Ltd, Surrey, UK). The data was checked for quality, validated and integrated in excel format using SARview (IDBS Ltd, Surrey, UK).

Sequence of Y641N EZH2 (Q15910 whole entry Y641N): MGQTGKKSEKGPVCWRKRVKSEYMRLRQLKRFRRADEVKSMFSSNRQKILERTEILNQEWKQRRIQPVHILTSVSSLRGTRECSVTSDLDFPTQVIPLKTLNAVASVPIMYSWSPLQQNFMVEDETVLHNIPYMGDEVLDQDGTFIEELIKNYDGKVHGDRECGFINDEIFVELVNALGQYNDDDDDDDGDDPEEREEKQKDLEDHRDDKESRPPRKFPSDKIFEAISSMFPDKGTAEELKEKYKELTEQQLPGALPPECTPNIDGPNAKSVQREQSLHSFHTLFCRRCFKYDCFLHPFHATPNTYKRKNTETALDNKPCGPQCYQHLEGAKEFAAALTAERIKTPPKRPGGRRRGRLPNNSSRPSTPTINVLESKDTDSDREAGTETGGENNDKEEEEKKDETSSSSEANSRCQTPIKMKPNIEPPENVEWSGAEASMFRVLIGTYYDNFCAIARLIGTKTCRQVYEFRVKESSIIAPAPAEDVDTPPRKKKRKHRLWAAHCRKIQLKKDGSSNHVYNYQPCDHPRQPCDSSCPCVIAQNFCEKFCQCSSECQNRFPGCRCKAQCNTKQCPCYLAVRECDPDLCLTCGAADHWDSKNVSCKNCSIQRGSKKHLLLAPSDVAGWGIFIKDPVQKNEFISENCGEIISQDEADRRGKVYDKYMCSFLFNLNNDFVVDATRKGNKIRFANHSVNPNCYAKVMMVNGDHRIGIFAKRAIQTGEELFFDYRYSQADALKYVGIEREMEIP
Sequence of Y641N EZH2 (O75530 whole entry partner): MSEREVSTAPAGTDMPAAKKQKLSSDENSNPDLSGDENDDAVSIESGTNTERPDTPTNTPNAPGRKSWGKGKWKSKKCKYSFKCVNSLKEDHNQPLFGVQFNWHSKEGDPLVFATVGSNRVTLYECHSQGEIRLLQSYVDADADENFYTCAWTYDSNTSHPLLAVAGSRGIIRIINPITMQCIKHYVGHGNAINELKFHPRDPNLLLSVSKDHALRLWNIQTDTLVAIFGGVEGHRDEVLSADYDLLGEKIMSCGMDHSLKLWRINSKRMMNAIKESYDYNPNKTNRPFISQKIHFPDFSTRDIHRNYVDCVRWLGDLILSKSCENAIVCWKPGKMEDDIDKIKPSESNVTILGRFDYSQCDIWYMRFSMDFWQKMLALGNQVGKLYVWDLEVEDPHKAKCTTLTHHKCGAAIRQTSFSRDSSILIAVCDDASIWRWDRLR
Sequence of Y641N EZH2 (Q15022 whole entry partner): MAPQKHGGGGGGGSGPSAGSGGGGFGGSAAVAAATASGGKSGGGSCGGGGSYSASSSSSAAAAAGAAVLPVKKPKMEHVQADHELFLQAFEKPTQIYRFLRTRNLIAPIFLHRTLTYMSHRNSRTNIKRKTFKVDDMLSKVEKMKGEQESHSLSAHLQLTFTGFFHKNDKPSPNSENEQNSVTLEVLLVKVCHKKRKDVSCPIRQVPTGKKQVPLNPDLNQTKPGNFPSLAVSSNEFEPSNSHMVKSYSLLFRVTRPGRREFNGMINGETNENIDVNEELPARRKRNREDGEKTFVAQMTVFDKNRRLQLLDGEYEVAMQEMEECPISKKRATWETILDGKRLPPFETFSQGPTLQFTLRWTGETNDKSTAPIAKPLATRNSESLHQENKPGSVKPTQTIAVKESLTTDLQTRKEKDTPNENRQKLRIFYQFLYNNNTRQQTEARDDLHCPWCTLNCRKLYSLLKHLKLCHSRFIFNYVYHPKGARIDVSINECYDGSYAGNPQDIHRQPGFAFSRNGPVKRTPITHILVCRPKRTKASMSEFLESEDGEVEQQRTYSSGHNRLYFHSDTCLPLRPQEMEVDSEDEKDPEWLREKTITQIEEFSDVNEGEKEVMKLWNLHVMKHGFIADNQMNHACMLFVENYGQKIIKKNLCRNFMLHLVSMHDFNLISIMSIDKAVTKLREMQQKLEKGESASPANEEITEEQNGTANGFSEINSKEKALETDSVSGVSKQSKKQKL
Sequence of EZH2 (Q15910 whole entry): as the sequence (Q15910 whole entry Y641N) above, with N641Y counted along it
Sequence of EZH2 (O75530 whole entry partner): as the sequence (O75530 whole entry partner) above
Sequence of EZH2 (Q15022 whole entry partner): as the sequence (Q15022 whole entry partner) above

| IC50 (EZH2) [nM] | IC50 (Y641N EZH2) [nM] | EC50 [1] [nM] | Compound |
| --- | --- | --- | --- |
| < 100 | 100 to 1000 | 2000 to 10000 | COc1cc(C)[nH]c(=O)c1CNC(=O)c1c(C)c(C(C)c2ccn(C)c(=O)c2)n2ncccc12 (stereo not drawn) [Compound 110, N-((4-methoxy-6-methyl-2-oxo-1,2-dihydropyridin-3-yl)methyl)-6-methyl-7-(1-(1-methyl-2-oxo-1,2-dihydropyridin-4-yl)ethyl)pyrrolo[1,2-b]pyridazine-5-carboxamide] |
| < 100 | < 100 | < 400 | COc1cc(C)[nH]c(=O)c1CNC(=O)c1c(C)c(-c2c(C)noc2C)n2ncccc12 [Compound 114, 7-(3,5-dimethylisoxazol-4-yl)-N-((4-methoxy-6-methyl-2-oxo-1,2-dihydropyridin-3-yl)methyl)-6-methylpyrrolo[1,2-b]pyridazine-5-carboxamide] |
